Test results published in publication PMC4863635, “Radicicol-Mediated Inhibition of Topoisomerase VIB-VIA Activity of the Human Malaria Parasite Plasmodium falciparum” (mSphere, 2016).

Key:
[1] = target: T1, PfTopoVIB (measured as PfTopoVIB-VIA complex) (Plasmodium falciparum, UniProt Q8I5N7+Q8ID53); assay: kDNA decatenation gel assay with yeast cell extract expressing PfTopoVIB-VIA; assay type: biochemical
T1 construct: gene PF3D7_1365600; full-length Myc-tagged PfTopoVIB co-expressed with Flag-tagged PfTopoVIA in S. cerevisiae, cell-free extract; with PfTopoVIA (PF3D7_1217100.1)

[2] = target: T2, PfTopoVIB (topoisomerase VIB subunit of PfTopoVI) (Plasmodium falciparum, UniProt Q8ID53); assay: as above; assay type: biochemical
T2 construct: gene PF3D7_1365600; full-length Myc-tagged PfTopoVIB co-expressed with Flag-tagged PfTopoVIA in S. cerevisiae, cell-free extract; with PfTopoVIA (PF3D7_1217100.1)
T2 sequence (Q8ID53 1-561): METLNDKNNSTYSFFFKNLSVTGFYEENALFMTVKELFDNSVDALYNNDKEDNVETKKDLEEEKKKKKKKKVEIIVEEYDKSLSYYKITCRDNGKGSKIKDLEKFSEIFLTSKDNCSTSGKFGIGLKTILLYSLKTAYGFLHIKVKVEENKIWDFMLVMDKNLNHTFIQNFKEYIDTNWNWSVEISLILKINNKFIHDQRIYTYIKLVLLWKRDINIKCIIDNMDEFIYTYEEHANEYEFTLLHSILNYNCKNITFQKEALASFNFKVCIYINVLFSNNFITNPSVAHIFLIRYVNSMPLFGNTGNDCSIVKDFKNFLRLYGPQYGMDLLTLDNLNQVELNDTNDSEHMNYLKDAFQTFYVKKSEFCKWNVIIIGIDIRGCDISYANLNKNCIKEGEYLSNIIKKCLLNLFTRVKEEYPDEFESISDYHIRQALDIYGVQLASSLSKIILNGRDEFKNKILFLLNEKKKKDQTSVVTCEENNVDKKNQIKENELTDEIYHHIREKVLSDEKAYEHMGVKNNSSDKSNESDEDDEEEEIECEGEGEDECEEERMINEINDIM
T2 sequence (Q8I5N7 1-327 partner): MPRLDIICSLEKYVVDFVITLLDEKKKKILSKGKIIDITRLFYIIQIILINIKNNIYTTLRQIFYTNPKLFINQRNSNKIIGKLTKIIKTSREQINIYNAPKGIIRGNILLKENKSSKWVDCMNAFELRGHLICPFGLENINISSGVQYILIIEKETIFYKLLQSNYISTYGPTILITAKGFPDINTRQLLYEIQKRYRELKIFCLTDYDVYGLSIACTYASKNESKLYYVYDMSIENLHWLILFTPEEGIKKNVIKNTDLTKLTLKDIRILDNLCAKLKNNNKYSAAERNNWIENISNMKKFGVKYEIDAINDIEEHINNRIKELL

SMILES | inhibition at 10 µM [1] [%] | IC50 [2] [µM]
COc1cc([C@@H]2c3cc4c(cc3[C@@H](O[C@@H]3O[C@@H]5CO[C@@H](C)O[C@H]5[C@H](O)[C@H]3O)[C@H]3COC(=O)[C@H]23)OCO4)cc(OC)c1O [etoposide] | > 80 | 
C[C@@H]1C[C@H]2O[C@@H]2/C=C\C=C\C(=O)Cc2c(Cl)c(O)cc(O)c2C(=O)O1 [radicicol] |  | ~80
